# Source: ChEMBL document CHEMBL4184312, “Discovery of novel CDK inhibitors via scaffold hopping from CAN508” (Bioorg Med Chem Lett, 2018)
# Tests used:
# [1] = molecular target: CDK9/cyclin T1 (Homo sapiens) (UniProt O60563+P50750); assay: Inhibition of recombinant human CDK9/cyclin T1 at 10 uM using Ulight-CFFKNIVTPRTPPPSQGK-amide as substrate after 90 mins by fluorescence assay relative to control; assay type: protein-complex assay
# [2] = molecular target: CDK2/Cyclin A2 (Homo sapiens) (UniProt P24941+P20248); assay: Inhibition of recombinant human CDK2/cyclin A at 10 uM using Ulight-CFFKNIVTPRTPPPSQGK-amide as substrate after 15 mins by fluorescence assay relative to control; assay type: protein-complex assay
# CDK2/Cyclin A2 = CDK2/Cyclin A2 (Homo sapiens, UniProt P24941); assay: Inhibition of recombinant human CDK2/cyclin A using Ulight-CFFKNIVTPRTPPPSQGK-amide as substrate after 15 mins by fluorescence assay relative to control; assay type: protein-complex assay
# CDK9/cyclin T1 = CDK9/cyclin T1 (Homo sapiens, UniProt P50750); assay: Inhibition of recombinant human CDK9/cyclin T1 using Ulight-CFFKNIVTPRTPPPSQGK-amide as substrate after 90 mins by fluorescence assay relative to control; assay type: protein-complex assay
# CDK9/cyclin T1, sequence (O60563 whole entry): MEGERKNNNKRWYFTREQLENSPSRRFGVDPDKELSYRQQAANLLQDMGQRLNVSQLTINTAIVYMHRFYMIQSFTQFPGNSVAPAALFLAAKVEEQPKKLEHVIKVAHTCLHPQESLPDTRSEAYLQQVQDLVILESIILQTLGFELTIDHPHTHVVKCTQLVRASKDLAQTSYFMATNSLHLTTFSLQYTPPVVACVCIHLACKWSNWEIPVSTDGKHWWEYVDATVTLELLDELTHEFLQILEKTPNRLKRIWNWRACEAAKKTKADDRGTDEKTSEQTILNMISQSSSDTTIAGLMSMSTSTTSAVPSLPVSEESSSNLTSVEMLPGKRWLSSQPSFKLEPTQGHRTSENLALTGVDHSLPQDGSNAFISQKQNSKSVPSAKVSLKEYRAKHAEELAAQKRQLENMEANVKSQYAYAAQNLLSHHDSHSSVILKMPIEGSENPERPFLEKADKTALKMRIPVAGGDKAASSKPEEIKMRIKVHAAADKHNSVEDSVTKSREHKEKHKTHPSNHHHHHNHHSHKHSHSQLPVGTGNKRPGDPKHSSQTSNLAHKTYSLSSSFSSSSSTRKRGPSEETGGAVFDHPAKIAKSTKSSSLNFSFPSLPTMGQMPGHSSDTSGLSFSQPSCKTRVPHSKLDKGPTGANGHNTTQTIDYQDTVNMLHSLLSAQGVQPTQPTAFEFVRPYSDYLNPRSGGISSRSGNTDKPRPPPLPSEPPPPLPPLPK
# CDK9/cyclin T1, sequence (P50750 whole entry): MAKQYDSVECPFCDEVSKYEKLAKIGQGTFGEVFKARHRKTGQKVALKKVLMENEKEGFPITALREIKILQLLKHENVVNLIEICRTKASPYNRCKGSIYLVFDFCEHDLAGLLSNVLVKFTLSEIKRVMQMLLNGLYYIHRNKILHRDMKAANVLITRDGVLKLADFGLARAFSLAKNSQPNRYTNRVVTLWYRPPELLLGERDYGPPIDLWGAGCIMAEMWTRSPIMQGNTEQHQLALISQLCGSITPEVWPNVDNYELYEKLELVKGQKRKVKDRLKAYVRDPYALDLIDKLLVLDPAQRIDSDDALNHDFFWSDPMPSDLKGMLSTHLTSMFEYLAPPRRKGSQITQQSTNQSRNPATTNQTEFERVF
# Homo sapiens = species on record: Homo sapiens; assay: Selectivity ratio of IC50 for recombinant human CDK9/cyclin T1 to IC50 for recombinant human CDK2/cyclin A
SMILES,inhibition [1] [%],inhibition [2] [%],IC50 (CDK2/Cyclin A2) [nM],IC50 (CDK9/cyclin T1) [nM],Ratio IC50 (Homo sapiens)
CN1CCN(CCC(=O)Nc2n[nH]c3ncc(-c4ccc(O)cc4)cc23)CC1,49,51,–,–,–
O=C(Nc1n[nH]c2ncc(-c3ccc([N+](=O)[O-])cc3)cc12)C1CCCCC1,< 10,< 10,–,–,–
CC(C)c1ccc(-c2cnc3[nH]nc(N)c3c2)cc1,< 10,< 10,–,–,–
O=C(CCN1CCOCC1)Nc1n[nH]c2ncc(-c3ccc(O)cc3)cc12,21,44,–,–,–
O=C(CCCl)Nc1n[nH]c2ncc(-c3ccc(O)cc3)cc12,73,98,660,2400,–
O=C(Nc1n[nH]c2ncc(-c3ccccc3O)cc12)C1CCCCC1,78,80,–,3600,–
O=C(Nc1n[nH]c2ncc(-c3ccc(O)cc3)cc12)C1CCCCC1,70,86,–,10400,–
O=C(Nc1n[nH]c2ncc(-c3ccncc3)cc12)C1CCCCC1,59,59,–,–,–
O=C(Nc1n[nH]c2ncc(-c3ccc(CO)cc3)cc12)C1CCCCC1,31,34,–,–,–
CCC(=O)Nc1n[nH]c2ncc(-c3ccc(O)cc3)cc12,70,90,820,2400,–
Nc1n[nH]c2ncc(-c3cncnc3)cc12,50,33,–,–,–
O=C(Nc1n[nH]c2ncc(-c3cccc(O)c3)cc12)C1CCCCC1,62,63,–,–,–
COc1ccc(-c2cnc3[nH]nc(N)c3c2)cc1,< 10,< 10,–,–,–
O=C(O)c1ccc(-c2cnc3[nH]nc(NC(=O)C4CCCCC4)c3c2)cc1,< 10,< 10,–,–,–
CCC(CC)C(=O)Nc1n[nH]c2ncc(-c3ccc(O)cc3)cc12,12,63,2000,529000,265
Nc1n[nH]c2ncc(-c3ccc(F)cc3)cc12,38,51,–,–,–
CCCCC(=O)Nc1n[nH]c2ncc(-c3ccc(O)cc3)cc12,73,87,–,3500,–
O=C(Nc1n[nH]c2ncc(-c3cncnc3)cc12)C1CCCCC1,83,96,360,1800,–
CNCCC(=O)Nc1n[nH]c2ncc(-c3ccc(O)cc3)cc12,64,39,–,–,–
O=C(Cc1ccccc1)Nc1n[nH]c2ncc(-c3ccc(O)cc3)cc12,25,70,–,–,–
N#Cc1ccc(-c2cnc3[nH]nc(NC(=O)C4CCCCC4)c3c2)cc1,< 10,< 10,–,–,–
CC(C)CC(=O)Nc1n[nH]c2ncc(-c3ccc(O)cc3)cc12,19,54,–,–,–
O=C(Nc1n[nH]c2ncc(-c3ccc(F)cc3)cc12)C1CCCCC1,32,< 10,–,–,–
Nc1n[nH]c(N)c1/N=N/c1ccc(O)cc1,–,–,13100,–,–
CN(C)CC(=O)Nc1n[nH]c2ncc(-c3ccc(O)cc3)cc12,56,52,–,–,–
CC(C)(C)CC(=O)Nc1n[nH]c2ncc(-c3ccc(O)cc3)cc12,59,77,–,–,–
CN(C)CCC(=O)Nc1n[nH]c2ncc(-c3ccc(O)cc3)cc12,48,59,–,–,–
Nc1n[nH]c2ncc(-c3ccc(O)cc3)cc12,48,58,–,–,–
CNCC(=O)Nc1n[nH]c2ncc(-c3ccc(O)cc3)cc12,64,68,–,–,–
